Measured values: publication PMC11647725, “Discovery of 4-(5-Membered)Heteroarylether-6-methylpicolinamide Negative Allosteric Modulators of Metabotropic Glutamate Receptor Subtype 5” (ACS Medicinal Chemistry Letters, 2024)
Where two headings read alike, the source gives them in different places.

Legend:
human mGlu5 = molecular target: T1, human mGlu5 (Homo sapiens, UniProt P41594); experiment: Calcium mobilization assay in human mGlu5-HEK293A cells (NAM, EC80 glutamate); assay type: cell-based; conditions: for % GluMin: efficacy of the NAM to reduce an EC80 response of glutamate; for pIC50: n = 2 in triplicate; for IC50: read-out: hmGlu5 IC50; for fold increase in hmGlu5 potency: 22fC vs 22bC, 22gA vs 22iA, 22iA vs 22hA, 22iB vs 22hB
T1 construct: expressed in transfected cells
T1 sequence (P41594 21-1212): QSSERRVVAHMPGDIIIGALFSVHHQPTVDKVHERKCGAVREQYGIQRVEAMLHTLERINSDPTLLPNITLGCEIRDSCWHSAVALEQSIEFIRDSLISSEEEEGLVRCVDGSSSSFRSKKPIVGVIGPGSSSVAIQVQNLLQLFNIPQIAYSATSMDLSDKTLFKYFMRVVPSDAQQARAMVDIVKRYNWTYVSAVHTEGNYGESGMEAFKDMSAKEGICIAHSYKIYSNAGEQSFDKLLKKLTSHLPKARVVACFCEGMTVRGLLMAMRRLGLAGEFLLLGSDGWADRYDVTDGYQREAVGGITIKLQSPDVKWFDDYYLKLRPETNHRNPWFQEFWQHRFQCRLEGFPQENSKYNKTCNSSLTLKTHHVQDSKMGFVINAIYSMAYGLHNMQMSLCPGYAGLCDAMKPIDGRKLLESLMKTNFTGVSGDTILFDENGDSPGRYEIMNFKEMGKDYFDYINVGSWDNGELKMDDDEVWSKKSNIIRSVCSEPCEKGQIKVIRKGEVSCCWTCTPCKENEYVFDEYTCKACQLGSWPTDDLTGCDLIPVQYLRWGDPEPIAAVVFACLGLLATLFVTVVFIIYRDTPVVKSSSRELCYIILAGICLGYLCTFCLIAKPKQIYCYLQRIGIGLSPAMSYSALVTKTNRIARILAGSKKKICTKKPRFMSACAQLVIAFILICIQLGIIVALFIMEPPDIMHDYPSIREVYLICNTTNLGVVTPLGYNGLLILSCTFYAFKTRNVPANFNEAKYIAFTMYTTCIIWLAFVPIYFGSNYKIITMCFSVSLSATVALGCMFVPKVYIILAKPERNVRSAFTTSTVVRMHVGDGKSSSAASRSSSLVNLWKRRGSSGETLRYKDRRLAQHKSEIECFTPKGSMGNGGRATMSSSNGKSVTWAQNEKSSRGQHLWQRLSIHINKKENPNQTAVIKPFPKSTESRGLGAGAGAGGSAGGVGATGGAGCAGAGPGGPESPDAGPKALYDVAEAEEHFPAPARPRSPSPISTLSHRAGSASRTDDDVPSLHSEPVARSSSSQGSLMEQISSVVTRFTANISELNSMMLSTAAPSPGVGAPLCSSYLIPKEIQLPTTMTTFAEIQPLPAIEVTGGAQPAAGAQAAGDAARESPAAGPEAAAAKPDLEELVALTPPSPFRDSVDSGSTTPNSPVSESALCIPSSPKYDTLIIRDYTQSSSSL

[1] = Binding in plasma from rat (equilibrium dialysis); assay type: in vitro ADME; conditions: for stability in rat plasma: samples had low analyte peaks; for fraction unbound at 6 h, 5 µM: rat, plasma, equilibrium dialysis, read-out: Rat fu,plasma
Description: (§1) Binding in plasma from rat and human.
(§2) Determination of compounds’ fraction unbound (f u) in plasma from rat and human was conducted in vitro via equilibrium dialysis using HTDialysis membrane plates. Dialysis membranes (four paired strips per HTD assay) were hydrated as described by the manufacturer and inserted into the HTD plate, which was assembled and prepared for sample addition by the dispensing of blank buffer (DPBS, 100 µL/well) into the ‘top half’ of each membrane-split well. Each compound was diluted into plasma from each species (5 µM final concentration), which was aliquoted in triplicate to the ‘bottom half’ of the prepared HTD plate wells. The HTD plate was sealed and incubated for 6 hours at 37 °C. Following incubation, each well (both top and bottom halves) were transferred (20 µL) to the corresponding wells of a 96-shallow-well (V-bottom) plate. The daughter plates were then matrix-matched (buffer side wells received equal volume of plasma, and plasma side wells received equal volume of buffer), and extraction solution (120 µL; acetonitrile containing 50 nM carbamazepine as IS) was added to all wells of both daughter plates to precipitate protein and extract test article. The plates were then sealed and centrifuged (3500 rcf) for 10 minutes at ambient temperature. Supernatant (60 µL) from each well of the daughter plates was then transferred to the corresponding wells of new daughter plates (96-shallow-well, V bottom) containing water (Milli-Q, 60 µL/well), and the plates were sealed in preparation for LC-MS/MS analysis (see below). fu was calculated as (analyte to IS MS peak area ratio from Trans-buffer side) / (analyte to IS MS peak area ratio from Cis-plasma side). Mean values for each species were calculated from 3 replicates. […]
(§3) Mean values for each species were calculated from 3 replicates. […]
(§4) After 5 minutes (pre-incubation), reactions were initiated by addition of nicotinamide adenine dinucleotide phosphate (NADPH, 1 mM final concentration). At selected time intervals (0, 3, 7, 15, 25, and 45 minutes) post-addition of NADPH, aliquots (50 µL) were taken and placed into a 96-shallow-well plate containing ice cold acetonitrile (150 µL) with carbamazepine (IS, 50 nM). The plates were then centrifuged (3000 rcf at 4 °C) for 10 minutes. The supernatants were transferred to a new 96-shallow-well daughter plate and diluted (1:1 v/v) with water (Milli-Q filtered). The plates were then sealed in preparation for LC-MS/MS analysis (see below).

[2] = Binding in plasma from human (equilibrium dialysis); assay type: in vitro ADME; conditions: for fraction unbound at 6 h, 5 µM: human, plasma, read-out: Human fu,plasma
Description: as §1, §2, §3, §4

[3] = Intrinsic clearance in human liver microsomes; assay type: in vitro ADME; conditions: for CLint scaled at 40 min, 1 µM: pH 7.4, human liver microsomes; for CLhep, human: predicted hepatic clearance based on microsomal CLint
Description: (§5) Mean values for each species were calculated from 3 replicates.
(§6) Intrinsic Clearance in Rat and Human Liver Microsomes
(§7) The in vitro intrinsic clearance (CL int) was investigated in commercially obtained hepatic microsomes from rat and human donors using the substrate depletion (i.e., loss-of-parent vs. time, or t 1/2 method) approach with analyte detection via liquid chromatography-tandem mass spectrometry (LC-MS/MS). For each species, mean %parent remaining values at each time point were calculated from replicates raw data (analyte:IS peak area ratios) and used to determine in vitro t 1/2 and CLint.
as §4, with “Experiments were carried out using a robot-assisted (TECAN model Evo 200). Compound was incubated (1 µM final concentration) in buffer (100 mM potassium phosphate pH 7.4 with 3 mM MgCl2) containing hepatic microsomes (0.5 mg/mL final concentration) from multiple species, discretely, at 37 °C under constant orbital shaking. After” for “After”
(§8) Raw LC-MS/MS peak area data generated from the assay samples were used to construct natural log-transformed %parent remaining vs. time plots (using t = 0 minute post-NADPH addition sample data as starting point set to 100%). In vitro compound half-life (t 1/2) values were obtained using the following […]
(§9) k is the slope from linear regression analysis of the natural log-transformed data (using means from Where all replicates at each time point). Resulting t 1/2 values were then used to calculate hepatic CLint values according to the following equation and with the use of species-specific scale-up factors for liver weight (grams) per total body weight (kg): […]
(§10) CLint = in vitro t1/2 x 0.5 mg microsomes x 1 gram liver x kg body wt aScale-up factors used are 45 (rat) and 20 (human).4
(§11) Predicted hepatic clearance (CLhep) was calculated using the following equation: […]
(§12) Qh represents hepatic blood flow (mL/min/kg): 21 for human, 70 for rat, and 90 for mouse.
(§13) Prepared samples were injected (10 µL each) onto an AB Sciex Triple Quad 4500 mass spectrometer system with an Agilent 1260 Infinity II pump and autosampler. Mass spectrometer conditions are described in Table S1. Quantitation of compounds was performed via AB Sciex Multiquant software using the raw analyte:IS peak area ratios. The typical detection range was 0.5 ng/mL to ≥ 5,000 ng/mL utilizing a quadratic equation regression with 1/x2 weighting.
(§14) Correction for dilution of all brain samples (in extraction buffer and subsequently in blank plasma, as previously described) was performed post-quantitation. The corrections for dilution in extraction buffer employed correction factors specific to each brain weight (not shown).

[4] = Intrinsic clearance in rat liver microsomes; assay type: in vitro ADME; conditions: for CLint scaled at 40 min, 1 µM: pH 7.4, rat liver microsomes; for CLhep, rat: predicted hepatic clearance based on microsomal CLint
Description: as §5, §6, §7
as §4, with “Experiments were carried out using a robot-assisted (TECAN model Evo 200). Compound was incubated (1 µM final concentration) in buffer (100 mM potassium phosphate pH 7.4 with 3 mM MgCl2) containing hepatic microsomes (0.5 mg/mL final concentration) from multiple species, discretely, at 37 °C under constant orbital shaking. After” for “After”
as §8, §9, §10, §11, §12, §13, §14

[5] = IV plasma-brain level determination (PBL) in rat; assay type: in vivo; conditions: male, Sprague-Dawley, brain and plasma, SD rat, 0.2 mg/kg IV; for Kp at 0.25 h: total brain-to-plasma partition ratio; for Kp uu at 0.25 h: unbound brain-to-plasma partition ratio
[6] = Binding in brain homogenate from rat (equilibrium dialysis); assay type: in vitro ADME; conditions: rat brain homogenates; for fraction unbound at 6 h, 1 µM: rat, brain homogenate, read-out: Rat fu,brain
Description: transferred to the corresponding wells of new daughter plates (96-shallow-well, V bottom) containing water (Milli-Q, 60 µL/well), and the plates were sealed in preparation for LC-MS/MS analysis (see below). fu was calculated as (analyte to IS MS peak area ratio from Trans-buffer side) / (analyte to IS MS peak area ratio from Cis-plasma side). Mean values for each species were calculated from 3 replicates.
Binding in brain homogenate from rat.
Determination of fraction unbound (f u) in brain homogenate from rat was conducted using the same methodology and procedure than described for plasma protein binding assay with the following modifications: 1) a final compound concentration of 1 μM was used, 2) naïve rat brains were homogenized in DPBS (1:3 composition of brain: DPBS, w/w) using a Mini-Bead Beater™ machine in order to obtain […]
The diluted fraction unbound (f u2) in brain was calculated as (analyte to IS MS peak area ratio from Trans-buffer side) / (analyte to IS MS peak area ratio from Cis-brain homogenate side). Undiluted fraction unbound for the brain was calculated using the following equation: […]
as §3

[7] = human mGlu5-HEK293A cells, EC80 fixed concentration of glutamate

| Structure (SMILES) | % GluMin (human mGlu5; human mGlu5-HEK293A cells) | pIC50 (human mGlu5; [7]) | IC50 (human mGlu5; [7]) | IC50 (human mGlu5) | stability in rat plasma [1] | fraction unbound at 6 h, 5 µM [2] | CLint scaled at 40 min, 1 µM [3] | CLhep, human [3] | CLint scaled at 40 min, 1 µM [4] | CLhep, rat [4] | fold increase in hmGlu5 potency (human mGlu5) | Kp at 0.25 h [5] | Rat fu,brain ([6]; fraction unbound) | fraction unbound at 6 h, 1 µM [6] | Human fu,plasma ([2]; fraction unbound) | Kp uu at 0.25 h [5] | fraction unbound at 6 h, 5 µM [1] |
| --- | --- | --- | --- | --- | --- | --- | --- | --- | --- | --- | --- | --- | --- | --- | --- | --- | --- |
| Cc1cccc(NC(=O)c2cc(Oc3c(C)nn(C)c3C)cc(C)n2)n1 [22aC] | 2% | 5.55 | 2.84 µM | 2.8 µM | – | – | – | – | – | – | – | – | – | – | – | – | – |
| Cc1cc(Oc2cn(C)nc2C)cc(C(=O)Nc2nc(C)cs2)n1 [22bB] | 2% | 5.91 | 1.25 µM | – | – | – | – | – | – | – | – | – | – | – | – | – | – |
| Cc1cc(Oc2cc(C(F)F)n(C)n2)cc(C(=O)Nc2nc(C)cs2)n1 [22cB] | 2% | 5.74 | 1.85 µM | – | – | – | – | – | – | – | – | – | – | – | – | – | – |
| Cc1cc(Oc2ncn(C)n2)cc(C(=O)Nc2nc(C)cs2)n1 [22dB] | 2% | 5.73 | 1.89 µM | – | – | – | – | – | – | – | – | – | – | – | – | – | – |
| Cc1cccc(NC(=O)c2cc(Oc3ncn(C)n3)cc(C)n2)n1 [22dC] | 2% | 6.00 | 1.01 µM | – | – | – | – | – | – | – | – | – | – | – | – | – | – |
| Cc1cc(Oc2cc(C)n(C)n2)cc(C(=O)Nc2nc(C)cs2)n1 [22eB] | 2% | 5.77 | 1.72 µM | – | – | – | – | – | – | – | – | – | – | – | – | – | – |
| Cc1cccc(NC(=O)c2cc(Oc3cc(C)nn3C)cc(C)n2)n1 [22fC] | 2% | 6.69 | 0.207 µM | – | possibly be unstable in rat plasma | 0.037 | 4.26 L/h/kg | 0.96 L/h/kg | 26.2 L/h/kg | 3.6 L/h/kg | 7.8 fold | 1.02 | 0.008 | < 0.01 | – | – | – |
| Cc1cc(Oc2cnn(C)c2C(F)(F)F)cc(C(=O)Nc2ccc(F)cn2)n1 [22gA] | 2% | 6.93 | 0.12 µM | – | possibly be unstable in rat plasma | 0.012 | 0.66 L/h/kg | 0.42 L/h/kg | 4.92 L/h/kg | 2.28 L/h/kg | ~3 fold | 3.08 | – | – | – | – | – |
| Cc1cc(Oc2cnn(C)c2C(F)(F)F)cc(C(=O)Nc2nc(C)cs2)n1 [22gB] | 2% | 7.58 | 0.026 µM | – | possibly be unstable in rat plasma | – | 4.2 L/h/kg | 0.96 L/h/kg | 49 L/h/kg | 3.9 L/h/kg | – | 5.57 | – | – | – | – | – |
| Cc1cccc(NC(=O)c2cc(Oc3cnn(C)c3C(F)(F)F)cc(C)n2)n1 [22gC] | – | – | – | – | – | 0.011 | 4.08 L/h/kg | 0.96 L/h/kg | 36 L/h/kg | 3.78 L/h/kg | – | – | – | 0.005 | – | – | – |
| Cc1cc(Oc2ccnn2C)cc(C(=O)Nc2ccc(F)cn2)n1 [22hA] | 2% | 6.30 | 0.506 µM | – | – | – | – | – | – | – | – | – | – | – | – | – | – |
| Cc1cc(Oc2ccnn2C)cc(C(=O)Nc2nc(C)cs2)n1 [22hB] | 2% | 7.02 | 0.096 µM | – | – | > 0.04 | 13 L/h/kg | 1.14 L/h/kg | 2.7 L/h/kg | 1.62 L/h/kg | – | 1.13 | – | 0.029 | 0.062 | 0.15 | – |
| Cc1cccc(NC(=O)c2cc(Oc3ccnn3C)cc(C)n2)n1 [22hC] | 2% | 7.04 | 0.091 µM | – | potentially be unstable in rat plasma | 0.034 | 14.5 L/h/kg | 1.14 L/h/kg | 19.2 L/h/kg | 3.42 L/h/kg | – | 2.42 | – | 0.021 | – | – | – |
| Cc1cc(Oc2cnn(C)c2)cc(C(=O)Nc2nc(C)cs2)n1 [22iB] | 2% | 7.56 | 0.028 µM | – | – | 0.063 | 2.76 L/h/kg | 0.84 L/h/kg | 2.64 L/h/kg | 1.62 L/h/kg | 3.4 fold | 1.37 | – | 0.014 | – | 0.22 | 0.089 |
| Cc1cccc(NC(=O)c2cc(Oc3cnn(C)c3)cc(C)n2)n1 [22iC] | 1% | 7.38 | 0.041 µM | – | – | 0.041 | 4.62 L/h/kg | 1.02 L/h/kg | 14 L/h/kg | 3.24 L/h/kg | – | 1.04 | – | 0.013 | – | 0.23 | 0.059 |
| Cc1csc(NC(=O)c2cc(Oc3cnn(C)c3)c(C(F)(F)F)cn2)n1 [24B] | 2% | 5.55 | 2.82 µM | 2.8 µM | – | – | – | – | – | – | – | – | – | – | – | – | – |
| Cc1cccc(NC(=O)c2cc(Oc3cnn(C)c3)c(C(F)(F)F)cn2)n1 [24C] | 2% | 5.89 | 1.33 µM | 1.3 µM | – | – | – | – | – | – | – | – | – | – | – | – | – |
